Data as given in patent US10597388B2, “Pyridazinone herbicides” (FMC CORPORATION, priority 2014, dated 2020).

Experiments:
Test in all cases: Test E greenhouse herbicide test, pre- and postemergence
Assay type in all cases: in vivo
[1] = tested on: barnyardgrass (Echinochloa crus-galli)
Method in brief: (§1)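 Visual ratings, 0 for no effect up to 100 for complete control, were taken relative to controls 14 to 21 d after greenhouse treatment. Applications used a surfactant-containing non-phytotoxic solvent formulation, sprayed either preemergence on silt loam-sown seed or postemergence on 1- to 4-leaf plants 2-18 cm tall in peat-based potting medium.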

[2] = tested on: beggarticks (hairy beggarticks, Bidens pilosa)
Method in brief: as §1

corn (Zea mays) = tested on: corn (Zea mays)
Method in brief: as §1

[3] = tested on: dayflower (Virginia (VA) dayflower, Commelina virginica)
Method in brief: as §1

[4] = tested on: foxtail, giant (giant foxtail, Setaria faberii); details: Preemergence
Method in brief: as §1

[5] = tested on: foxtail, green (green foxtail, Setaria viridis); details: Preemergence
Method in brief: as §1

[6] = tested on: horseweed (Conyza canadensis); details: Postemergence
Method in brief: as §1

[7] = tested on: johnsongrass (Sorghum halepense); details: Preemergence
Method in brief: as §1

[8] = tested on: lambsquarters (Chenopodium album); details: Preemergence
Method in brief: as §1

[9] = tested on: nutsedge, yellow (yellow nutsedge, Cyperus esculentus); details: Preemergence
Method in brief: as §1

[10] = tested on: panicum, fall (fall panicum, Panicum dichotomiflorum)
Method in brief: as §1

[11] = tested on: pigweed, palmer (palmer pigweed, Amaranthus palmeri)
Method in brief: as §1

[12] = tested on: ragweed (common ragweed, Ambrosia elatior)
Method in brief: as §1

[13] = tested on: sandbur (southem sandbur, Cenchrus echinatus)
Method in brief: as §1

soybean (Glycine max) = tested on: soybean (Glycine max)
Method in brief: as §1

[14] = tested on: velvetleaf (Abutilon theophrasti); details: Preemergence
Method in brief: as §1

[15] = 62 g ai/ha, Postemergence, scale 0 to 100 (0 no effect, 100 complete control)
[16] = 62 g ai/ha, Preemergence, scale 0 to 100 (0 no effect, 100 complete control)
[17] = 125 g ai/ha, Postemergence, scale 0 to 100 (0 no effect, 100 complete control)
[18] = 250 g ai/ha, Postemergence, scale 0 to 100 (0 no effect, 100 complete control)
[19] = Postemergence, 31 g ai/ha, visual, scale 0 no effect to 100 complete control
[20] = Preemergence, 31 g ai/ha, scale 0 to 100, 0 no effect, 100 complete control
[21] = Preemergence, 125 g ai/ha, visual, scale 0 no effect to 100 complete control
[22] = Preemergence, 250 g ai/ha, visual, scale 0 no effect to 100 complete control
[23] = 62 g ai/ha, scale 0 to 100 (0 no effect, 100 complete control)
[24] = 31 g ai/ha, scale 0 to 100, 0 no effect, 100 complete control
[25] = 125 g ai/ha, visual, scale 0 no effect to 100 complete control
[26] = 250 g ai/ha, visual, scale 0 no effect to 100 complete control
[27] = 125 g ai/ha, scale 0 to 100 (0 no effect, 100 complete control)
[28] = 125 g ai/ha, Preemergence, scale 0 to 100 (0 no effect, 100 complete control)

CCc1sc2c(C)cc(C)cc2c1-c1c(O)c(C)nn(C)c1=O [Compound 57]
Plant response rating, Barnyardgrass [1, 15]: 85
Plant response rating, Barnyardgrass [1, 16]: 0
Plant response rating, Barnyardgrass [1, 17]: 90
Plant response rating, Barnyardgrass [1, 18]: 90
Plant response rating, Barnyardgrass [1, 19]: 80
Plant response rating, Barnyardgrass [1, 20]: 0
Plant response rating, Barnyardgrass [1, 21]: 75
Plant response rating, Barnyardgrass [1, 22]: 100
Plant response rating, Beggarticks [2, 15]: 100
Plant response rating, Beggarticks [2, 16]: 100
Plant response rating, Beggarticks [2, 17]: 100
Plant response rating, Beggarticks [2, 18]: 100
Plant response rating, Beggarticks [2, 19]: 100
Plant response rating, Beggarticks [2, 20]: 100
Plant response rating, Beggarticks [2, 21]: 100
Plant response rating, Beggarticks [2, 22]: 100
Plant response rating, Corn (corn (Zea mays); [15]): 10
Plant response rating, Corn (corn (Zea mays); [16]): 0
Plant response rating, Corn (corn (Zea mays); [17]): 15
Plant response rating, Corn (corn (Zea mays); [18]): 15
Plant response rating, Corn (corn (Zea mays); [19]): 15
Plant response rating, Corn (corn (Zea mays); [20]): 0
Plant response rating, Corn (corn (Zea mays); [21]): 0
Plant response rating, Corn (corn (Zea mays); [22]): 0
Plant response rating, Dayflower, VA [3, 15]: 15
Plant response rating, Dayflower, VA [3, 16]: 25
Plant response rating, Dayflower, VA [3, 17]: 35
Plant response rating, Dayflower, VA [3, 18]: 30
Plant response rating, Dayflower, VA [3, 19]: 10
Plant response rating, Dayflower, VA [3, 20]: 0
Plant response rating, Dayflower, VA [3, 21]: 30
Plant response rating, Dayflower, VA [3, 22]: 80
Plant response rating, Foxtail, Giant [4, 23]: 35
Plant response rating, Foxtail, Giant [4, 24]: 5
Plant response rating, Foxtail, Giant [4, 25]: 95
Plant response rating, Foxtail, Giant [4, 26]: 95
Plant response rating, Foxtail, Green [5, 23]: 20
Plant response rating, Foxtail, Green [5, 24]: 0
Plant response rating, Foxtail, Green [5, 25]: 90
Plant response rating, Foxtail, Green [5, 26]: 100
Plant response rating, Horseweed [6, 23]: 75
Plant response rating, Horseweed [6, 27]: 75
Plant response rating, Horseweed ([6]; 250 g ai/ha, scale 0 to 100 (0 no effect, 100 complete control)): 80
Plant response rating, Horseweed ([6]; 31 g ai/ha, visual, scale 0 no effect to 100 complete control): 60
Plant response rating, Johnsongrass [7, 23]: 30
Plant response rating, Johnsongrass [7, 24]: 0
Plant response rating, Johnsongrass [7, 25]: 30
Plant response rating, Johnsongrass [7, 26]: 35
Plant response rating, Lambsquarters [8, 23]: 100
Plant response rating, Lambsquarters [8, 24]: 100
Plant response rating, Lambsquarters [8, 25]: 100
Plant response rating, Lambsquarters [8, 26]: 100
Plant response rating, Nutsedge, Yellow [9, 23]: 30
Plant response rating, Nutsedge, Yellow [9, 27]: 60
Plant response rating, Nutsedge, Yellow [9, 24]: 0
Plant response rating, Nutsedge, Yellow [9, 26]: 70
Plant response rating, Panicum, Fall [10, 15]: 60
Plant response rating, Panicum, Fall [10, 16]: 98
Plant response rating, Panicum, Fall [10, 17]: 70
Plant response rating, Panicum, Fall [10, 28]: 100
Plant response rating, Panicum, Fall [10, 18]: 80
Plant response rating, Panicum, Fall [10, 19]: 40
Plant response rating, Panicum, Fall [10, 20]: 95
Plant response rating, Panicum, Fall [10, 22]: 100
Plant response rating, Pigweed, Palmer [11, 15]: 20
Plant response rating, Pigweed, Palmer [11, 16]: 35
Plant response rating, Pigweed, Palmer [11, 17]: 30
Plant response rating, Pigweed, Palmer [11, 28]: 40
Plant response rating, Pigweed, Palmer [11, 18]: 60
Plant response rating, Pigweed, Palmer [11, 19]: 10
Plant response rating, Pigweed, Palmer [11, 20]: 35
Plant response rating, Pigweed, Palmer [11, 22]: 60
Plant response rating, Ragweed [12, 15]: 60
Plant response rating, Ragweed [12, 16]: 100
Plant response rating, Ragweed [12, 17]: 95
Plant response rating, Ragweed [12, 28]: 100
Plant response rating, Ragweed [12, 18]: 95
Plant response rating, Ragweed [12, 19]: 50
Plant response rating, Ragweed [12, 20]: 90
Plant response rating, Ragweed [12, 22]: 100
Plant response rating, Sandbur [13, 15]: 60
Plant response rating, Sandbur [13, 16]: 0
Plant response rating, Sandbur [13, 17]: 65
Plant response rating, Sandbur [13, 28]: 30
Plant response rating, Sandbur [13, 18]: 70
Plant response rating, Sandbur [13, 19]: 50
Plant response rating, Sandbur [13, 20]: 0
Plant response rating, Sandbur [13, 22]: 80
Plant response rating, Soybean (soybean (Glycine max); [15]): 0
Plant response rating, Soybean (soybean (Glycine max); [16]): 0
Plant response rating, Soybean (soybean (Glycine max); [17]): 15
Plant response rating, Soybean (soybean (Glycine max); [28]): 0
Plant response rating, Soybean (soybean (Glycine max); [18]): 10
Plant response rating, Soybean (soybean (Glycine max); [19]): 10
Plant response rating, Soybean (soybean (Glycine max); [20]): 0
Plant response rating, Soybean (soybean (Glycine max); [22]): 20
Plant response rating, Velvetleaf [14, 23]: 65
Plant response rating, Velvetleaf [14, 27]: 95
Plant response rating, Velvetleaf [14, 24]: 30
Plant response rating, Velvetleaf [14, 26]: 100
